In publication PMC10830684, “Effect of Oregon grape root extracts on P-glycoprotein mediated transport in in vitro cell lines” (Journal of Pharmacy & Pharmaceutical Sciences, 2024):

Legend:
Caco-2 cells [1] = experiment: LDH leakage cytotoxicity assay in Caco-2 cells; type: cell-based, human; settings: 4 hours exposure
From the text: (§1) We initiated cytotoxicity experiments with the Caco-2, MDCKII-MDR1 and MDCKII-wild type cells on Day 7 (Caco-2) and Day 4 (MDCKII-MDR1 and MDCKII-wild type) after the initial plating of the cells at 2.5 × 10^3 cells/well in 48-well plates (Becton Dickinson, Franklin Lakes, NJ, USA). See details of preparation for the cytotoxicity experiments in Supplementary Material.
We initiated cytotoxicity experiments with the Caco-2, MDCKII-MDR1 and MDCKII-wild type cells on Day 7 (Caco-2) and Day 4 (MDCKII-MDR1 and MDCKII-wild type) after the initial plating of the cells at 2.5x10^3 cells/well in 48-well plates (Becton Dickinson, Franklin Lakes, NJ, USA). Stock solutions of 10 mM berberine or berbamine were prepared by dissolving the compounds in DMSO (berberine) or distilled water (berbamine).
(§2) The LDH enzymatic activities were assayed using the method of Mitchell et al.(1). […] Enzyme leakage into the medium was expressed as the percentage of total cellular LDH. The MTT (3-(4,5-dimethythiazole-2yl)-2,5-diphenyl tetrazolium bromide) reduction assay was done according to Mosmann (2). This assay was conducted immediately with the same cells used in the LDH study. The results were expressed as the percentage of negative controls.

MDCKII-MDR1 cells = experiment: MTT cytotoxicity assay in MDCKII-MDR1 cells; type: cell-based, Canine; settings: 4 hours exposure
From the text: as §1
We initiated cytotoxicity experiments with the Caco-2, MDCKII-MDR1 and MDCKII-wild type cells on Day 7 (Caco-2) and Day 4 (MDCKII-MDR1 and MDCKII-wild type) after the initial plating of the cells at 2.5x10^3 cells/well in 48-well plates (Becton Dickinson, Franklin Lakes, NJ, USA). Stock solutions of 10 mM berberine or berbamine were prepared by dissolving the compounds in DMSO (berberine) or distilled water (berbamine). […] The final concentration of DMSO was 0.003% (v/v), 0.03% (v/v), 0.3% (v/v), 1% (v/v), 1.5% (v/v), and 3% (v/v) DMSO/culture medium for 0.3 μM, 3 μM, 30 μM, 100 μM, ,150 μM, and 300 μM, respectively. The final concentration of ethanol was 0.15% (v/v) ethanol/culture medium. Ketoconazole (75 µM) was used as a positive control and no treatment (medium alone) was used as a negative control for each experiment.
as §2

P-gp = system: P-gp; design: method as in PMID 12434406; settings: Caco-2 cells; seven day pretreatment; 30 µM; cited from earlier work
MDCKII wild-type cells = experiment: Effect on 3H-CsA and 3H-digoxin transport in MDCKII wild-type cells; settings: MDCKII-WT; for Papp (B to A) of 3H-CsA: 0.5 µM 3H-CsA; for Papp (B to A) of 3H-digoxin: 0.5 µM 3H-digoxin
Caco-2 cells [2] = experiment: Transepithelial transport of berberine and berbamine across Caco-2 cells; type: in vitro ADME, human; settings: 100 µM; Caco-2 cells
Method: Transport of ^3H-CsA and ^3H-digoxin (0.5 µM and 1.0 µCi), MDR1 substrates, were performed using transport buffer consisting of HBSS with 10 mM HEPES and 25 mM D-glucose at a pH of 6.8 for the apical (A) compartment and 7.4 for the basolateral (B) compartment. Experiments were performed at 37°C, 5% CO2, and 95% relative humidity. Cells in the Transwell® inserts were washed 3 times with a transport buffer and allowed to equilibrate for 30 min prior to the addition of test compounds. […] To evaluate the efflux mechanism involved with berberine and berbamine, 100 µM of berberine and berbamine were placed in the donor chamber and 100 µL samples were collected in the receiver chamber at 0, 0.5, 1.0, 1.5, 2.0, 2.5, and 3.0 h and analyzed by HPLC. Each experiment was performed in duplicate and repeated for each condition tested. For experiments performed in “non-sink” conditions, 100 µL aliquots were taken from the donor and receiver chambers at the beginning and from the receiver chamber at 0.5, 1.0, 1.5, 2.0, 2.5, and 3.0 h. An equal volume of 100 µL was replaced in the chamber at each sample time point. “Non-sink” conditions were performed when less than 10% of compound is transported across cells during the transport experiment such that a concentration gradient was always present. For the “sink” condition experiments, the entire receiver volume was replaced at each time interval and a 100 µL aliquot was taken from the receiver volume for scintillation counting. A 100 µL sample was taken from the donor chamber at 3 h in order to calculate the mass balance of radioactivity to determine if adsorption to the cell culture transport apparatus had occurred. Each sample was placed in 0.9 mL of scintillation fluor (Cytoscint ES, ICN, Cosa Mesa, CA, USA) and read on a Beckman LS 6500 (Palo Alto, CA, USA) scintillation counter for ^3H activity. For berberine and berbamine analysis, 100 µL aliquot was assayed by HPLC.
The apparent permeability (Papp) was calculated using the following equation [40]: Papp=dQ/dt×1/A×C0
Where A is the surface area of the monolayer (4.71 cm^2) and C0 is the initial concentration of radiolabeled probe substrate in the donor compartment. dQ/dt is the slope of the steady-state rate constant. The efflux ratio was determined by dividing the Papp in the B to A direction by the Papp in the A to B direction: Efflux ratio=PappB to A/PappA to B
A Waters 2690 separations module with a Model 996 photodiode array detector with the Millennium 32 Chromatograph Manager version 3.0 software (Waters Corporation, Milford, MA, USA) was used for HPLC analysis. […] All the standards and samples were filtered (0.2 µm) prior to injection. Ten µL was injected onto a 250 × 4.6 mm i.d., […], Zorbax Eclipse X DB-C18 Column (Agilent Technologies, Palo Alto, CA, USA) with a 3.9 × 20 mm i.d. Symmetry® C18 guard column, with an isocratic mobile phase of 32:68 acetonitrile:buffer. The buffer consisted of 30 mM ammonium acetate and 14 mM TEA and was adjusted to pH 4.85 with acetic acid. A flow rate of 1 mL/min and UV absorption at 254 nm was used for analysis. The retention time of berberine and berbamine was 7.84 min and 3.03 min, respectively. The cumulative amount of transport was determined using the corresponding peak area for berberine or berbamine. The cumulative amount of berberine or berbamine transported across the cell membrane was evaluated as a functionof time. The Papp was calculated by the following equation: […]

For `COc1ccc2cc3[n+](cc2c1OC)CCc1cc2c(cc1-3)OCO2.[Cl-]` [Berberine, Berberine chloride], which LDH assay (Caco-2 cells [1]; 150 µM) is on record?
The LDH assay was 25.93 ± 4.78%.

What about the LDH assay (Caco-2 cells [1]; 300 µM) of the same compound?
Its LDH assay is 44.88 ± 2.09%.

What about the MTT assay (MDCKII-MDR1 cells; 0.03 µM) of the same compound?
The MTT assay was “□ (%MTT reduction is not significantly decreased compared with the negative control)”.

What about the MTT assay (MDCKII-MDR1 cells; 3.0 µM) of the same compound?
The MTT assay was “□ (%MTT reduction is not significantly decreased compared with the negative control)”.

What about the MTT assay (MDCKII-MDR1 cells; 100 µM) of the same compound?
Its MTT assay is “□ (%MTT reduction is not significantly decreased compared with the negative control)”.

What about the MTT assay (MDCKII-MDR1 cells; 150 µM) of the same compound?
Its MTT assay is “□ (%MTT reduction is not significantly decreased compared with the negative control)”.

What about the MTT assay (MDCKII-MDR1 cells; 300 µM) of the same compound?
Its MTT assay is “□ (%MTT reduction is not significantly decreased compared with the negative control)”.

What about the “increase of the efflux of daunomycin” value (P-gp) of the same compound?
The value was 1.4 fold.

What about the “Papp (B to A) of 3H-CsA” value (MDCKII wild-type cells; 10 µM compound) of the same compound?
The value was 4.07 ± 0.56 x 10^−6 cm/s.

And the “Papp (B to A) of 3H-digoxin” value (MDCKII wild-type cells; 10 µM compound)?
The value was 7.55 ± 0.46 x 10^−6 cm/s.

What about the “Papp (B to A) of 3H-CsA” value (MDCKII wild-type cells; 30 µM compound) of the same compound?
The value was 4.34 ± 0.29 x 10^−6 cm/s.

What about the “Papp (B to A) of 3H-digoxin” value (MDCKII wild-type cells; 30 µM compound) of the same compound?
Its value is 6.95 ± 0.71 x 10^−6 cm/s.

And the “Papp A to B direction” value (Caco-2 cells [2])?
The value was 2.35 ×10⁻⁶ cm/s.

What about the “Papp B to A direction” value (Caco-2 cells [2]) of the same compound?
The value was 10.4 ×10⁻⁶ cm/s.

And the “fold increase of Papp B to A compared with A to B” value (Caco-2 cells [2])?
The value was ~4 fold.

What about the “transport in the A to B direction” value (Caco-2 cells [2]) of the same compound?
The value was 0.18 nmol/min.

What about the “transport in the B to A direction” value (Caco-2 cells [2]) of the same compound?
The value was 1.45 nmol/min.
